# Where two headings read alike, the source gives them in different places.
# System: smooth muscle cells (SMC)
# Experiment: anti-proliferation assay (perlecan)
# Type: cell-based
# Details: for activity in anti-proliferation assay (Perlecan), in words: using the same activity scale used in Table 3; for IC50: anti-proliferation assay (perlecan)
# Description: The activity scale used in Table 3 as follows (numbers are inclusive): “+++” represents IC50 of less than about 3 μM; “++” represents IC50 of between about 3 and about 7 μM; and “+” represents IC50 of greater than about 7 μM. In addition, compounds, to include compositions thereof, encompassed within the scope of structures Ia-XXIVa, respectively, or listed in Tables 1A and 1E may be likewise employed in this embodiment and/or aspect of the present invention. Further, any hydrogen atoms that are required for any atom to attain its usual valence in a structure presented in Table 3, whether a carbon atom or a heteroatom, should be inferred if it is not specifically indicated.
# In addition to the above compounds, the following compounds and compositions comprising these compounds are active in an anti-proliferation assay (Perlecan). These compounds and compositions comprising these compounds are, among other things, generally useful for treating cardiovascular disorders associated with proliferative activity. Specifically, these compounds include N^2-cycloheptyl-N^4-(3-fluoro-4-methoxyphenyl)-N^6-methyl-N^6-(1-methyl-piperidin-4-yl)-1,3,5-triazine-2,4,6-triamine, and N^2-cycloheptyl-N^4-methyl-N^4-(1-methyl-piperidin-4-yl)-N^6-naphthalen-2-yl-1,3,5-triazine-2,4,6-triamine.
# Methods for identifying the activity and screening for one or more of these compounds or molecules that induce synthesis of proteoglycans such as HSPG (heparan sulfate proteoglycan) are taught in U.S. patent application Ser. No. 10/091,357, which is incorporated herein in its entirety. Assays of effects of compounds in vivo are also taught in the incorporated references and are known to those skilled in the art. In general, methods comprise the addition of such compounds to assays and measurement of HSPG synthesis including, but not limited to, the production of syndecans, glypicans and perlecans, for example, syndecans 1, 2 and 4; and glypican-1. Other assays that can be used to determine the activity of the compounds of the present invention include other methods for measuring the induction of perlecan synthesis. For example, in one assay, perlecan is induced in cells by certain inducers, and the response is measured. Compounds of the present invention are then added to a replicate assay and the effect on perlecan induction is determined. Using such methods, compounds are determined that can either inhibit perlecan, elevate induction of perlecan, or that have no effect at all. Those compounds that are effective as therapeutic agents can then be used in animals, humans or patients with cellular proliferation disease aspects, such as vascular-associated diseases or SMC proliferation pathologies.
# Another assay for determining compounds having SMC effects comprises adding a composition suspected of affecting SMC proliferation to smooth muscle cells in growth medium or serum-free medium. The change in cell proliferation can be measured by methods known to those skilled in the art, such as incorporation of labeled nucleotides into dividing cells' DNA, and compared to the proliferation of cells which are not treated with the compound. Other measurements include directly determining levels of HSPG synthesis by measuring the amount or change in amount of HSPG such as with ELISA for HSPGs, and compared to the amount of HSPG synthesis in untreated cells. Other indirect or direct measurement are contemplated by the present invention and are known to those skilled in the art. For example, such methods include, but are not limited to, measurement of RNA levels, RT-PCR, Northern blotting, Western blotting promoter-based assays to identify compounds that affect one or more proteoglycans and assays for proteoglycan biological activity shown by recombinant proteins, partially purified proteins, or lysates from cells expressing proteoglycans in the presence or absence of compounds of interest.
# [1] = class of IC50, read-out: Activity (note 1)
# [2] = some cells print no unit, read-out: Avg IC-50
Compound,"activity in anti-proliferation assay (Perlecan), in words",IC50 [1] [nM],IC50 [2] [nM]
"COc1ccc(Nc2nc(NC(C)C)nc(Oc3ccc(C#CC(C)(C)O)cc3)n2)cc1Cl [4-{4-[4-(3-Chloro-4-methoxy-phenylamino)-6-isopropylamino-[1,3,5]triazin-2-yloxy]-phenyl}-2-methyl-but-3-yn-2-ol]",high activity,–,–
"COc1ccc(Nc2nc(NC3CCCCCC3)nc(OC3CCCN(C(C)=O)C3)n2)cc1Cl (stereo not shown) [drawing 577, 1-{3-[4-(3-Chloro-4-methoxy-phenyl-amino)-6-cyclo-heptylamino-[1,3,5]triazin-2-yl-oxy]-piperidin-1-yl}-ethanone]",–,3000 to 7000,6500
"COc1ccc(Nc2nc(NCCNC(=O)CCCCC3SCC4NC(=O)NC43)nc(NC3CCCCCC3)n2)cc1Cl (stereo not shown) [drawing 597, of 5-(2-Oxo-hexahydro-thi-eno[3,4-d]imidazol-4-yl)-pen-tanoic acid {2,-[4-(3-chloro-4-meth-oxy-phenylamino)-6-cyclo-heptylamino-[1,3,5]triazin-2-yl-amino]-ethyl}-amide]",–,3000 to 7000,3200
"COc1ccc(Nc2nc(NNC(=O)CCCCC3SCC4NC(=O)NC43)nc(NC3CCCCCC3)n2)cc1Cl (stereo not shown) [5-(2-Oxo-hexahydro-thieno[3,4-d]imidazol-4-yl)-pentanoic acid N′-[4-(3-chloro-4-methoxy-phenylamino)-6-cycloheptylamino-[1,3,5]triazin-2-yl]-hydrazide]",high activity,–,–
"CCN1CCCC1CNc1nc(Nc2ccc(OCc3ccccc3)c(Cl)c2)nc(NC2CCCCCC2)n1 (stereo not shown) [N-(4-Benzyloxy-3-chloro-phenyl)-N′-cycloheptyl-N″-(1-ethyl-pyrrolidin-2-ylmethyl)-[1,3,5]triazine-2,4,6-triamine]",high activity,–,–
"COc1ccc(Nc2nc(NC3CCCCCC3)nc(NC3CCN(C(=O)CCCCC4SCC5NC(=O)NC54)CC3)n2)cc1Cl (stereo not shown) [4-(5-{4-[4-(3-Chloro-4-methoxy-phenylamino)-6-cycloheptylamino-[1,3,5]triazin-2-ylamino]-piperidin-1-yl}-5-oxo-pentyl)-tetrahydro-thieno[3,4-d]imidazol-2-one]",high activity,–,–
"Clc1nc(Cl)nc(NC2CCCCCC2)n1 [Cycloheptyl-(4,6-dichloro-[1,3,5]tri-azin-2-yl)-amine]",–,3000 to 7000,3750
"CN1CCC(N(C)c2nc(Nc3cccc(F)c3)nc(NC3CCCCCC3)n2)CC1 [drawing 598, N-Cycloheptyl-N′-(3-fluoro-phe-nyl)-N″-methyl-N″-(1-methyl-piper-idin-4-yl)-[1,3,5]triazine-2,4,6-tri-amine]",–,< 3000,1230
"COc1ccc(Nc2nc(NC3CCCCCC3)nc(N(C)C3CCN(C)CC3)n2)cc1F [N^2-cycloheptyl-N^4-(3-fluoro-4-methoxyphenyl)-N^6-methyl-N^6-(1-methyl-piperidin-4-yl)-1,3,5-triazine-2,4,6-triamine]",medium or moderate activity,–,–
"CCOc1nc(Nc2ccc(OC)c(F)c2)nc(NC2CCCCCC2)n1 [N-Cycloheptyl-6-ethoxy-N′-(3-fluoro-4-methoxy-phenyl)-[1,3,5]triazine-2,4-diamine]",high activity,–,–
"CCN1CCCC1CNc1nc(Nc2ccc(OC)c(F)c2)nc(N2CCN(CC(=O)N3CCCC3)CC2)n1 (stereo not shown) [2-{4-[4-[(1-Ethyl-pyrrolidin-2-ylmethyl)-amino]-6-(3-fluoro-4-methoxy-phenylamino)-[1,3,5]triazin-2-yl]-piperazin-1-yl}-1-pyrrolidin-1-yl-ethanone]",high activity,–,–
"CN1CCC(N(C)c2nc(Nc3cccc(F)c3)nc(NC3CCCCCC3)n2)CC1 [N-Cycloheptyl-N′-(3-fluoro-phenyl)-N″-methyl-N″-(1-methyl-piperidin-4-yl)-[1,3,5]triazine-2,4,6-triamine]",high activity,–,–
"COc1ccc(Nc2nc(NC3CCCCCC3)nc(OCC3CCCN3C)n2)cc1Cl (stereo not shown) [drawing 575, N-(3-Chloro-4-methoxy-phenyl)-N′-cyclo-heptyl-6-(1-methyl-pyr-rolidin-2-ylmethoxy)-[1,3,5]tri-azine-2,4-diamine]",–,3000 to 7000,5000
"CCN1CCCC(Oc2nc(Nc3ccc(OC)c(Cl)c3)nc(NC3CCCCCC3)n2)C1 (stereo not shown) [N-(3-Chloro-4-methoxy-phenyl)-N′-cycloheptyl-6-(1-ethyl-piperidin-3-yloxy)-[1,3,5]triazine-2,4-diamine]",high activity,–,–
"COc1ccc(Nc2nc(NC3CCCCCC3)nc(Oc3ccc(/C=N\O)cc3)n2)cc1Cl [4-[4-(3-Chloro-4-methoxy-phenylamino)-6-cycloheptylamino-[1,3,5]triazin-2-yloxy]-benzaldehyde oxime]",high activity,–,–
"CN1CCC(N(C)c2nc(Nc3ccc4ccccc4c3)nc(NC3CCCCCC3)n2)CC1 [N^2-cycloheptyl-N^4-methyl-N^4-(1-methyl-piperidin-4-yl)-N^6-naphthalen-2-yl-1,3,5-triazine-2,4,6-triamine]",high activity,–,–
CCN1CCCC1CNc1nc(Nc2ccc(OC)c(F)c2)nc(N2CCN(CC(=O)N3CCCC3)CC2)n1.Cl.Cl (stereo not shown),high activity,–,–
"COc1ccc(Nc2nc(NC3CCCCCC3)nc(OCC3CCCO3)n2)cc1Cl (stereo not shown) [drawing 586, N-(3-Chloro-4-methoxy-phenyl)-N′-cyclo-heptyl-6-(tetrahydro-furan--2-ylmethoxy)-[1,3,5]tri-azine-2,4-diamine]",–,< 3000,1250
"COc1ccc(Nc2nc(NC3CCCCCC3)nc(OCC3CCCN3C)n2)cc1Cl (stereo not shown) [N-(3-Chloro-4-methoxy-phenyl)-N′-cycloheptyl-6-(1-methyl-pyrrolidin-2-ylmethoxy)-[1,3,5]triazine-2,4-diamine]",high activity,–,–
"COc1ccc(Nc2nc(NCC3CCCO3)nc(NC3CCCCCC3)n2)cc1Cl (stereo not shown) [N-(3-Chloro-4-methoxy-phenyl)-N′-cycloheptyl-N″-(tetrahydro-furan-2-ylmethyl)-[1,3,5]triazine-2,4,6-triamine]",high activity,–,–
"COc1ccc(Nc2nc(NC3CCCCCC3)nc(Oc3ccccc3F)n2)cc1Cl [N-(3-Chloro-4-methoxy-phenyl)-N′-cycloheptyl-6-(2-fluoro-phenoxy)-[1,3,5]triazine-2,4-diamine]",high activity,–,–
"CCc1occc(=O)c1Oc1nc(Nc2ccc(OC)c(Cl)c2)nc(NC2CCCCCC2)n1 [3-[4-(3-Chloro-4-methoxy-phenylamino)-6-cycloheptylamino-[1,3,5]triazin-2-yloxy]-2-ethyl-pyran-4-one]",high activity,–,–
"COc1ccc(Nc2nc(NC3CCCCCC3)nc(Oc3ccc(/C=N\O)cc3)n2)cc1Cl [drawing 583, 4-[4-(3-Chloro-4-methoxy-phenyl-amino)-6-cyclo-heptylamino-[1,3,5]triazin-2-yl-oxy]-benzaldehyde oxime]",–,< 3000,720
COc1ccc(Nc2nc(NCCNC(=O)CCCCC3SCC4NC(=O)NC43)nc(NC3CCCCCC3)n2)cc1Cl (stereo not shown),high activity,–,–
